In patent publication US20260176328A1, “ANTIBODY COMPOSITIONS AND METHODS FOR DISRUPTING NONTUBERCULOUS MYCOBACTERIA BIOFILMS” (priority 2022, published 2026):

Tests used:
Conditions in all cases: 2 hr; for Percent killing of NRel: NRel induced with 5 μg HuTipMab
M. abscessus 19977 = test: Antibiotic mediated killing of planktonic and newly released (NRel) M. abscessus 19977
Procedure: (§1) To determine relative susceptibility of planktonic NTM to amikacin, biofilms were prepared and gently washed twice with DPBS as described above, then treated with 200 μL of either: 7H9 (growth control); 7H9+0.5 μg amikacin/mL for M. abscessus 19977, +12 μg amikacin/mL for M. avium, +0.7 μg amikacin/mL for M. abscessus clinical isolate 1 or +lug amikacin/mL for M. abscessus clinical isolate 3. […] Treated biofilms were incubated statically at 37° C. in 5% CO2 and humidity for 2 hr, after which 150 μL was collected from each well and dispensed into 1.5 mL Eppendorf microcentrifuge tubes, then pulse-vortexed with two sterile 3 mm glass beads (Fisher Scientific International, Inc., Hampton, NH) to disrupt aggregates. Suspensions were gently sonicated for 2 min in a waterbath sonicator (Ultrasonic Bath 2.8 L, Fisher Scientific) to further disrupt any aggregates. After sonication, samples were diluted and plated on Middlebrook 7H10 agar and incubated at 37° C. with 5% CO2 in a humidified atmosphere to assess relative CFU.
(§2) To determine azithromycin-mediated killing, the same protocol as above was used with one adjustment. […] Wells were treated with 200 μL of either: 7H9 (growth control); 7H9+5 μg azithromycin/mL for M. abscessus 19977, +16 μg azithromycin/mL for M. avium, +10 μg azithromycin/mL for M. abscessus clinical isolate 1, or +8 μg azithromycin/mL for M. abscessus clinical isolate 3. […] Percent killing was then calculated as [growth control CFU/mL-NRel or planktonic CFU/mL]/[growth control CFU/mL].

[1] = test system: M. abscessus clinical isolate 3; test: Antibiotic mediated killing of planktonic and NRel M. abscessus clinical isolate 3
Procedure: as §1, §2

[2] = test system: M. abscessus clinical isolate 1; test: Antibiotic mediated killing of planktonic and NRel M. abscessus clinical isolate 1
Procedure: as §1, §2

M. avium = test: Antibiotic mediated killing of planktonic and newly released (NRel) M. avium
Procedure: as §1, §2

`NCC[C@H](O)C(=O)N[C@@H]1C[C@H](N)[C@@H](O[C@H]2O[C@H](CN)[C@@H](O)[C@H](O)[C@H]2O)[C@H](O)[C@H]1O[C@H]1O[C@H](CO)[C@@H](O)[C@H](N)[C@H]1O` [amikacin, Amikacin] was tested, and the “Percent killing of NRel” value (M. abscessus 19977; 0.5 μg amikacin/mL (¼ MIC)) was 61%, the “Percent killing of planktonic bacteria” value (M. abscessus 19977; 0.5 μg amikacin/mL (¼ MIC)) was 23% and the “Percent killing of NRel” value ([1]; lug amikacin/mL) was 47%. For the same compound, the “Percent killing of planktonic bacteria” value ([1]; lug amikacin/mL) was 21%, the “Percent killing of NRel” value ([2]; 0.7 μg amikacin/mL) was 45% and the “Percent killing of planktonic bacteria” value ([2]; 0.7 μg amikacin/mL) was 28%. For the same compound, the “Percent killing of NRel” value (M. avium; 12 μg amikacin/mL (¼ MIC)) was 41% and the “Percent killing of planktonic bacteria” value (M. avium; 12 μg amikacin/mL (¼ MIC)) was 17%.
With `CC[C@H]1OC(=O)[C@H](C)[C@@H](O[C@H]2C[C@@](C)(OC)[C@@H](O)[C@H](C)O2)[C@H](C)[C@@H](O[C@@H]2O[C@H](C)C[C@H](N(C)C)[C@H]2O)[C@](C)(O)C[C@@H](C)CN(C)[C@H](C)[C@@H](O)[C@]1(C)O` [azithromycin, Azithromycin] the “Percent killing of NRel” value (M. abscessus 19977; 5 μg azithromycin/mL (½ MIC)) was 42%, the “Percent killing of planktonic bacteria” value (M. abscessus 19977; 5 μg azithromycin/mL (½ MIC)) was 20% and the “Percent killing of NRel” value ([1]; 8 μg azithromycin/mL) was 45%. The “Percent killing of planktonic bacteria” value ([1]; 8 μg azithromycin/mL) was 25%, the “Percent killing of NRel” value ([2]; 10 μg azithromycin/mL) was 47% and the “Percent killing of planktonic bacteria” value ([2]; 10 μg azithromycin/mL) was 28%. For the same compound, the “Percent killing of NRel” value (M. avium; 16 μg azithromycin/mL (½ MIC)) was 36% and the “Percent killing of planktonic bacteria” value (M. avium; 16 μg azithromycin/mL (½ MIC)) was 19%.
